In US12668803B2, “Glypican-3-specific modified aptamer and use thereof” (APTAMER SCIENCES INC., priority 2019, dated 2026):

Assays:
[1] = target: GPC3 (Homo sapiens, UniProt P51654); assay: Protein binding assay with 32P-labeled aptamers (Zorbax resin, filter plate, phosphorimager); settings: FIG. 1
Method: To select an aptamer which is the most specific to GPC3 from 7 aptamer libraries expected to be specific to GPC3 [2428-12-09, 2428-12-10, 2428-12-11, 2424-30-01, 2424-30-05, 2424-30-06, 2424-30-07, all 40-mer], a binding assay was performed through […] labeling. In detail, to […] RI-labeled and unlabeled oligonucleotide region at the oligonucleotide 3′-end of each candidate aptamer sequence, 0.25 μL of α-32P, 0.25 μL of DNA nucleotidylexotransferase (terminal transferase), 1 μL of 10×NEB buffer (New England Biolabs, USA), 1 μL of CoCl2, 7.5 μL of a template (aptamer sequence) (total 10 μL) were added to a plate, which was then sealed with foil, and then incubated at 37° C. for 30 min (enzyme incubation). After incubation at 70° C. for 10 min (enzyme incubation), each of the incubated samples was diluted with 30 μL of distilled water. The lower part of the Microspin G-50 column was removed and a tube was put thereon. After spinning at 800 rcf for 1 min, the tube was removed. The sample was put in a resin, followed by spinning at room temperature and 800 rcf for 2 min.
The aptamers, from which RI-labeled and unlabeled oligonucleotide ends were removed, were diluted with 100 μL of 1×SB18T0.05 to 20,000 cpm. The aptamers were heated at 95° C. for 5 min, and subsequently, cooled at 37° C. for 15 min. 100 nM of protein (GPC3) was subjected to 4.64-fold serial dilution, and each 30 μL of a total of 8 points was added to each well. 200 μL of 1×SB18T0.05 was added to the aptamers, of which heating and cooling were completed, and then 30 μL thereof was added to each well for a total volume of 60 μL. 2 μL of the aptamer was dropped as an input control on a nylon filter, followed by incubation at 37° C. for 30 min. During incubation, 30 μL of 1×SB18T0.05 was added to a filter plate in advance. After incubation, 5.5 μL of Zorbax resin was added, and allowed to react at 1400 rpm for 1 min. […] The screen was analyzed, and the binding degree according to each protein concentration was derived (percentage bound value).

[2] = test system: squamous cell carcinoma cells (A431); assay: Cell cycle analysis (propidium iodide, FACS); assay type: cell-based; settings: 4 hr treatment, FIG. 27
Method: (§1) To analyze the effects of combi 4 and combi 5 bound with three or five gemcitabines on the cell cycle of hepatoma cells, cell cycle analysis was performed. In detail, Hep3B, HepG2, and A431 cells were seeded in a 6-well plate at a density of 1×10^6/ml, and cultured using a DMEM medium containing 10% FBS and 1% antibiotics (penicillin/streptomycin) under conditions of 5% CO2 and 37° C., respectively. Next day, 100 μM of the modified aptamer stock was mixed with 5×SB18 buffer to prepare the aptamer at a concentration of 80 μM, and heated at 95° C. for 5 min, and then cooled at room temperature for 15 min or more. The medium was removed from the cultured cells, and replaced by a serum-free medium, and cultured under conditions of 37° C. and 5% CO2 for 1 hr. The serum-free medium was removed, and then the cells were washed with 2 ml of 1×PBS. 2 ml of KRPH buffer was added, and cultured under conditions of 37° C. and 5% CO2 for 1 hr. The aptamer was added, and cultured under conditions of 37° C. and 5% CO2 for 4 hr. The KRPH buffer was removed, and 2 ml of 1×PBS was added thereto to perform washing, and then PBS was removed. 2 ml of 1×PBS was added, and cells were scraped using a scraper, and collected in FACs tubes, followed by centrifugation at 4° C. and 2000 rpm for 4 minutes. 1/500-fold diluted RNAase A and propidium iodide diluted with PBS at a concentration of 50 μg/ml were added to the FACs tubes at a volume of 500 μL, followed by pipetting. Incubation was performed at room temperature for 30 min while blocking the light, and then cell cycle was measured.

[3] = test system: hepatoma cells (Hep3B, HepG2); assay: Cell cycle analysis (propidium iodide, FACS); assay type: cell-based; settings: 4 hr treatment, FIGS. 25 and 26
Method: as §1

[4] = test system: GPC3-expressing hepatoma cells; assay: Cell-killing effect (CCK-8) of gemcitabine-bound combi aptamers; assay type: cell-based; settings: FIG. 23 and FIG. 24
Method: In detail, Huh-7 cells (ATCC, Rockville, MD, USA) were seeded in a 96-well plate at a density of 1×10^4/mL, and cultured using a DMEM (Gibco, Grand Island, NY, USA) medium containing 10% FBS (Gibco, Grand Island, NY, USA) and 1% antibiotics (penicillin/streptomycin) under conditions of 5% CO2 and 37° C. Next day, the aptamer stock (100 μM) was mixed with 5×SB18 buffer to prepare the stock at a concentration of 80 μM, and heated at 95° C. for 5 min, and then cooled at room temperature for 15 min or more. The medium was removed from the cultured cells, and 100 μL of a serum-free medium was added thereto, and cultured under conditions of 37° C. and 5% CO2 for 1 hr. The serum-free medium was removed, and then the cells were washed with 100 μL of 1×PBS. 100 μL of KRPH buffer was added, and cultured under conditions of 37° C. and 5% CO2 for 1 hr. The aptamer was diluted with KRPH buffer to 2-fold of the desired concentration, and added to a 96-well plate at 1× concentration, and cultured under conditions of 37° C. and 5% CO2 for 4 hr. After treatment with the aptamer, the KRPH buffer was removed, and then 100 μL of culture medium was added and cultured under conditions of 37° C. and 5% CO2 for […]. 6 days later, 10 μL of a kit solution of CCK-8 (Cell Counting Kit-8) was added to each well, and then cultured under conditions of 37° C. and 5% CO2 for 3 hr. Cell death levels were examined at […] using a microplate reader.

Sequence of GPC3 (P51654 25-554): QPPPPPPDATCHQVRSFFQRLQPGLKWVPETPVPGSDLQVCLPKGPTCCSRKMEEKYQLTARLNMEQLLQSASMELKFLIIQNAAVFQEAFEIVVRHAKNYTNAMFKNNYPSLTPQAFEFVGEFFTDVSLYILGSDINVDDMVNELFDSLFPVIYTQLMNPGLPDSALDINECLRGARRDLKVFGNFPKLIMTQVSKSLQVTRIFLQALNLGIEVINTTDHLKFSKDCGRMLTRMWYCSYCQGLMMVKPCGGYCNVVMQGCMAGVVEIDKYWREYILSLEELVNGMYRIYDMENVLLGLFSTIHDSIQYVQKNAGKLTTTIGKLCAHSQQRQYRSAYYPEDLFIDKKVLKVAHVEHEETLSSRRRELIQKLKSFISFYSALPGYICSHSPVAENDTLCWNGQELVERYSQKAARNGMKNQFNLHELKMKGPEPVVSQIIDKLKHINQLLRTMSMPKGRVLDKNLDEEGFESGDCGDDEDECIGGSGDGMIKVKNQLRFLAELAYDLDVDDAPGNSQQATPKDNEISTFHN

Molecule | binding ability among the candidates ([1]; 7 candidate 40-mer aptamers) | maximum binding capacity (Bmax) [1] | Kd ([1]; read-out: dissociation constant (Kd)) [nM] | cell cycle arrest [2] | cell cycle arrest [3] | concentration from which a cell-killing effect is shown [4] [nM]
12-10: SEQ ID NO: 1, 40-mer GPC3-specific aptamer with BzdU bases (GGGAAGnGAAnGCGnnGAAnnAnGnCCCnnCAGnCAnCAC; BzdU bases, as printed in the source, key not given here) | most excellent binding ability | 0.79 | 1.5 |  |  | 
Nc1ccn([C@@H]2O[C@H](CO)[C@@H](O)C2(F)F)c(=O)n1 [gemcitabine, 2′,2′-difluoro 2′-deoxycytidine, reference compound] |  |  |  | no cell cycle arrest |  | 
Combi 4 G(5) (DNA GNGAANGCGNNGAANNANGYSSSNNCAGNCANSAS; 5 gemcitabines, 2'-OMe, 2'-F, BzdU, 3' idT; Combi 4 G(5); (1)..(1) G is 2-O-Methoxy-DNA.; (2)..(2) n is BzdU.; (3)..(3) G is 2-O-Methoxy-DNA.; (4)..(4) A is 2-Fluorine-DNA.; (5)..(5) A is 2-Fluorine-DNA.; (6)..(6) n is BzdU.; (10)..(10) n is BzdU.; (11)..(11) n is BzdU.; (12)..(12) G is 2-Fluorine-DNA.; (13)..(13) A is 2-Fluorine-DNA.; (14)..(14) A is 2-Fluorine-DNA.; (15)..(15) n is BzdU.; (16)..(16) n is BzdU.; (17)..(17) A is 2-Fluorine-) |  |  |  | no cell cycle arrest | arrested hepatoma cells at the G1/S phase | 100
Combi 5 G(5) (DNA GNGAANGCGNNGAANNANWYSSSNNCAGNCANSAS; 5 gemcitabines, 2'-OMe, BzdU; Combi 5 G(5); (1)..(1) G is 2-O-Methoxy-DNA.; (2)..(2) n is BzdU.; (3)..(3) G is 2-O-Methoxy-DNA.; (4)..(4) A is 2-Fluorine-DNA.; (5)..(5) A is 2-Fluorine-DNA.; (6)..(6) n is BzdU.; (10)..(10) n is BzdU.; (11)..(11) n is BzdU.; (12)..(12) G is 2-Fluorine-DNA.; (13)..(13) A is 2-Fluorine-DNA.; (14)..(14) A is 2-O-Methoxy-DNA.; (15)..(15) n is BzdU.; (16)..(16) n is BzdU.; (17)..(17) A is 2-O-Methox) |  |  |  | no cell cycle arrest | arrested hepatoma cells at the G1/S phase | 100
Combi 11 G(3) (DNA GNGAANGCGNNGAANNANWYSSSNNCAGNCANCAC; gemcitabines, 2'-MOE, 2'-F, BzdU, 3' idT; Combi 11 G(3); (1)..(1) G is 2-Methoxyethyl-DNA.; (2)..(2) n is BzdU.; (3)..(3) G is 2-Methoxyethyl-DNA.; (4)..(4) A is 2-Fluorine-DNA.; (5)..(5) A is 2-Fluorine-DNA.; (6)..(6) n is BzdU.; (10)..(10) n is BzdU.; (11)..(11) n is BzdU.; (12)..(12) G is 2-Fluorine-DNA.; (13)..(13) A is 2-Fluorine-DNA.; (14)..(14) A is 2-Methoxyethyl-DNA.; (15)..(15) n is BzdU.; (16)..(16) n is BzdU.; (17)..(17) A is) |  |  |  |  |  | 200
